Where “and” joins values, the source holds several entries; their conditions need not be identical. Identical values can stand only once. Like-named read-outs stand apart in the source and are kept apart here.
Tested on: Blatta orientalis
Conditions: for Mortality %: insects on treated tile; for Mortality %/time (h) (application): Table 37, Blatta orientalis, concentrations in mg/ml in label
Procedure: Method: Contact test on non-porous tile measuring 400 cm^2 at a temperature of 28° C. Test duration: up to 72 hours after exposure of the insect to the insecticidal active substance.
(§1) Three tests were performed in parallel, A, B, and C, as follows: • A) Comparative. 1 ml of Composition 2 was applied to the tile. After waiting for the complete evaporation of the solvent, 10 cockroaches were placed on top of the treated tile, starting the test. • B) According to the invention. 1 ml of Composition 8b was distributed on the tile. After waiting for the complete evaporation of the solvent, 1 ml of Composition 2 was added to the same tile. Subsequently, after waiting for the solvent to evaporate, 10 cockroaches were placed on top of the treated tile, starting the test. • C) According to the invention. 1 ml of Composition 8b was distributed on a tile. After waiting for the complete evaporation of the solvent, 10 cockroaches were placed for 30 minutes on top of the treated tile. At the end of the 30 minutes, the cockroaches were transferred to an untreated area.
Method: Contact test on non-porous tile measuring 400 cm^2 at a temperature of 28° C. Test duration: up to 120 hours after exposure of the insect to the insecticidal active substance.
as §1, with “4a” for “2”, “8d” for “8b”, “After” for “Subsequently, after”
Six tests were performed in parallel, A, B, C, D, E and F, as follows: • A) Comparative. 1 ml of Composition 9b was distributed on the tile. After waiting for the complete evaporation of the solvent, 1 ml of Composition 4a was added to the same tile. Subsequently, after waiting for the solvent to evaporate, 10 cockroaches were placed on top of the treated tile, starting the test. • B) Comparative. 1 ml of Composition 9b was distributed on a tile. After waiting for the complete evaporation of the solvent, 10 cockroaches were placed for 30 minutes on top of the treated tile. At the end of the 30 minutes, the cockroaches were transferred to an untreated area. […] 1 ml of Composition 10b was distributed on the tile. After waiting for the complete evaporation of the solvent, 1 ml of Composition 4a was added to the same tile. Subsequently, after waiting for the solvent to evaporate, 10 cockroaches were placed on top of the treated tile, starting the test. • D) Comparative. 1 ml of Composition 10b was distributed on a tile. After waiting for the complete evaporation of the solvent, 10 cockroaches were placed for 30 minutes on top of the treated tile. At the end of the 30 minutes, the cockroaches were transferred to an untreated area. […] 1 ml of Composition 8d was distributed on the tile. After waiting for the complete evaporation of the solvent, 1 ml of Composition 4a was added to the same tile. Subsequently, after waiting for the solvent to evaporate, 10 cockroaches were placed on top of the treated tile, starting the test. • F) According to the invention. 1 ml of Composition 8d was distributed on a tile. After waiting for the complete evaporation of the solvent, 10 cockroaches were placed for 30 minutes on top of the treated tile. At the end of the 30 minutes, the cockroaches were transferred to an untreated area.

Compound: CC1(C)C(C=C(Cl)Cl)C1C(=O)OC(C#N)c1cccc(Oc2ccccc2)c1 (stereo not drawn) [Composition 4a, Cypermethrin]
- Mortality % (Example 4, 28° C, 24 h): 30%
- Mortality % (Example 4, 28° C, 48 h): 35%
- Mortality % (Example 4, 28° C, 120 h): 35%
- Mortality % (Example 10, 21° C, 24 h): 20%
- Mortality % (Example 10, 21° C, 48 h): 35%
- Mortality % (Example 11, 21° C, 48 h): 20%
- Mortality % (Example 11, 21° C, 72 h): 25%
- Mortality % (Example 11, 21° C, 96 h): 33%
- Mortality % (Example 13, 21° C, 48 h): 60%
- Mortality % (Example 13, 21° C, 72 h): 62%
- Mortality % (Example 20, 21° C, 24 h): 5%
- Mortality % (Example 20, 21° C, 72 h): 25%
- Mortality % (Example 32, 25° C, 24 h): 10%
- Mortality % (Example 32, 25° C, 48 h): 35%
- Mortality % (Example 32, 25° C, 72 h): 45%
- Mortality %/time (h) (application) (48 h, listed as Cypermethrin (0.20)): 35/48 ^ % and 20/48 ^ %

Compound: COP(=O)(OC)SCn1c(=O)oc2cc(Cl)cnc21 [Composition 23b, Azamethiphos]
- Mortality % (Example 15, 21° C, 24 h): 10%
- Mortality % (Example 15, 21° C, 48 h): 17%
- Mortality % (Example 15, 21° C, 72 h): 23%
- Mortality % (Example 21, 25° C, 48 h): 17%
- Mortality % (Example 25, 21° C, 24 h): 10%
- Mortality % (Example 25, 21° C, 48 h): 17%
- Mortality % (Example 25, 21° C, 72 h): 23%
- Mortality %/time (h) (application) (48 h): 17/48 ^ %

Reference: patent US20260215418A1, “HYDROCARBON ALCOHOLS AND THEIR DERIVATIVES AS SYNERGISTS IN PESTICIDE ACTIVITY” (priority 2022, published 2026)
